Columns and labels:
Format in all cases: cell-based
Human PMN cells = test: PMN chemotactic migration towards FMLP, Boyden chamber
Procedure: Since ICAM-1 is involved in cell migration, cell migration towards a chemotactic peptide was studied in cells treated with Compound I and STI. Human PMN cells were placed in one side of a Boyden chamber, using standard techniques, and a chemotactic peptide (FMLP) was placed in the other chamber. Cells were allowed to migrate into the second chamber, and the number of migrating cells per field and distance of migration were calculated. The experiment was repeated with PMN cells pretreated with one of the following: 5 or 0.5 mg/ml STI, 1 or 0.1 μM Compound I, a buffer vehicle, and with and without chemotactic peptide. The number of cells per field that migrated the same distance as the untreated control was measured. Without the peptide and with no treatment, an average of 19 cells/field were migrating a distance of 80 microns. […] In other words, no cells (or less than 5/field) were identified at 115 microns. […] The ability to inhibit PMN migration is an important constituent of anti-inflammatory compounds.

[1] = tested on: monolayer keratinocyte/melanocyte co-cultures; test: Pigmentation in monolayer keratinocyte/melanocyte co-cultures (K-M contact); settings: keratinocyte-melanocyte contact
Procedure: (§1) Since PAR-2 is expressed in keratinocytes, but not in melanocytes, the possible requirement of keratinocyte-melanocyte contact was tested for the effect of Compound I and SLIGRL on melanosome phagocytosis by the keratinocytes. Primary melanocyte cultures (commercially available from Clonetics, San Diego) were plated under epidermal equivalents (EpiDerm, of MatTek, Ashland, Mass.) to create an equivalent-monolayer co-culture with no contact between keratinocytes and melanocytes. These co-cultures were compared to MelanoDerm equivalents (of MatTek), where melanocytes are present in the basal layer of the equivalent. Cultures were treated with Compound I, with the […], and with the PAR-2 agonist SLIGRL. As set forth in Table 3, keratinocytes are indicated by “K”, melanocytes are indicated by “M”, and lack of keratinocyte-melanocyte contact is indicated as “no K-M cont”. […] The same result was also observed with monolayer keratinocyte/melanocyte co-cultures having keratinocyte/melanocyte contact.

[2] = tested on: melanocyte cultures plated under epidermal equivalents (EpiDerm); test: Pigmentation in equivalent-monolayer co-culture (no K-M contact); settings: no keratinocyte-melanocyte contact
Procedure: as §1

MelanoDerm equivalents = test: Pigmentation in melanocyte-containing epidermal equivalents; settings: keratinocyte-melanocyte contact
Procedure: as §1

In the case of FMLP [reference compound], the “Migration (distance)” value (Human PMN cells; buffer without peptide: 80 μ) is reported as 115 μ and the Cells/Field (Human PMN cells; cells counted at 115 microns, PMN pretreated with 5 or 0.5 mg/ml STI or 1 or 0.1 μM Compound I, buffer without FMLP: 19 at 80 μ) is reported as 41 cells/field.

TFLLRNPNDK [printed as PAR-2 agonist] was tested, and the “level of pigmentation, Mono-Layer Co-Cultures (K-M cont.)” value [1] was “no effect”, the “level of pigmentation, Equivalent Monolayer Co-culture (no K-M cont.)” value [2] was “no effect” and the “level of pigmentation, Epidermal Equivalents (K-M cont.)” value (MelanoDerm equivalents) was “no effect”.

— US20020197244A1, “Compositions and methods for regulating phagocytosis and ICAM-1 expression” (priority 1998, published 2002)
